Legend:
Format in all cases: in vivo
[1] = tested on: leukemia cells (1629B cells) in bone marrow; assay: Proliferation of leukemia cells in bone marrow in mouse leukemia model (PCR of neomycin resistance gene)
Protocol: Neomycin resistance gene, a marker gene for 1629B cells, was used as an index of leukemia cells (1629B cells) in bone marrow and the gene level was determined, thereby detecting the number of leukemia cells in bone marrow.
For the amplification of neomycin resistance gene, primers were prepared and PCR (reaction condition: 32 cycles of 95° C. for 30 sec, 60° C. for 30 sec, and 72° C. for 1 min) was performed using DNA extracted from bone marrow cells as a template. After the reaction, the image of PCR bands was analyzed using Gel-Pro Analyzer (MediaCybernetics).

[2] = tested on: mouse leukemia cell line 1629B; assay: Mouse leukemia model, survival rate and leukocytes in peripheral blood, dosing from the time of 1629B cell transfer; conditions: SCID mice, 100 mg/kg orally every day from 1629B transfer
Protocol: This method was carried out in accordance with the literature “Cancer Cell., 4, 55-65 (2003)”. Cells of mouse leukemia cell line 1629B were transferred into 8- or 9-week-old female SCID mice (CLEA Japan, Inc.) to develop leukemia. The compounds described in Examples 80, 81 and 83 were orally administered, respectively, at a dose of 100 mg/kg every day from the time when 1629B cells were transferred.

[3] = tested on: mouse leukemia cell line 1629B; assay: Mouse leukemia model, survival time and leukocytes in peripheral blood, dosing from Day 21 after transfer of 1629B cells; conditions: SCID mice, 100 mg/kg orally every day from Day 21 after transfer; for reduction ratio of increase in the number of leukocytes in peripheral blood: Day 35 after the transfer; for survival time prolonged to (Day after the transfer of leukemia cells): untreated mice died on Day 36
Protocol: This method was carried out in accordance with the literature “Cancer Cell., 4, 55-65 (2003)”.
Cells of mouse leukemia cell line 1629B were transferred into 8-week-old female SCID mice (CLEA Japan, Inc.) to develop leukemia. The compounds described in Examples 77, 78 and 84 were orally administered, respectively, at a dose of 100 mg/kg every day from Day 21 after the transfer of 1629B cells.

[4] = leukemia mice of Example 88 (100 mg/kg orally from the time of transfer)
[5] = leukemia mice of Example 89 (100 mg/kg orally from Day 21 after transfer)
[6] = Day 43 after the transfer of leukemia cells

Row | SMILES | reduction ratio of increase in the number of leukemia cells in bone marrow [1, 4] [%] | reduction ratio of increase in the number of leukocytes in peripheral blood ([2]; Day 51 after the transfer) [%] | survival rate ([2]; Day 51 after the transfer of leukemia cells) [%] | reduction ratio of increase in the number of leukemia cells in bone marrow [1, 5] [%] | reduction ratio of increase in the number of leukocytes in peripheral blood [3] [%] | survival time prolonged to (Day after the transfer of leukemia cells) [3] [days] | reduction ratio of increase in the number of leukocytes in peripheral blood ([2]; Day 43 after the transfer) [%] | survival rate [2, 6] [%]
1 | CN(c1ccc(/C=C/C[C@H](NC(=O)c2c(Cl)cccc2Cl)C(=O)[O-])cc1)c1ncccn1.[Na+] [Example 81, (S,E)-2-(2,6-Dichlorobenzamido)-5-[4-(methyl-pyrimidin-2-ylamino)phenyl]pent-4-enoic Acid Sodium Salt] | 50.8 | 60.8 | 62.5 | – | – | – | – | –
2 | COC1(c2ccc(/C=C/C[C@H](NC(=O)c3c(Cl)cccc3Cl)C(=O)[O-])cc2)CCOCC1.[Na+] [Example 78, (S,E)-2-(2,6-Dichlorobenzamido)-5-[4-(4-methoxytetrahydropyran-4-yl)-phenyl]pent-4-enoic Acid Sodium Salt] | – | – | – | 41.7 | 41.0 | 43 | – | –
3 | COC1(c2ccc(/C=C/C[C@H](NC(=O)c3c(Cl)cccc3Cl)C(=O)O)cc2)CCOCC1 [Example 77, (S,E)-2-(2,6-Dichlorobenzamido)-5-[4-(4-methoxytetrahydropyran-4-yl)-phenyl]pent-4-enoic Acid] | – | – | – | 49.3 | 41.2 | 43 | – | –
4 | CC(C)N(c1ccc(/C=C/C[C@H](NC(=O)c2c(Cl)cccc2Cl)C(=O)[O-])cc1)c1ncccn1.[Na+] [Example 84, (S,E)-2-(2,6-Dichlorobenzamido)-5-[4-(isopropyl-pyrimidin-2-ylamino)phenyl]pent-4-enoic Acid Sodium Salt] | – | – | – | 45.6 | 49.8 | 43 | – | –
5 | CC(C)N(c1ccc(/C=C/C[C@H](NC(=O)c2c(Cl)cccc2Cl)C(=O)O)cc1)c1ncccn1 [Example 83, (S,E)-2-(2,6-Dichlorobenzamido)-5-[4-(isopropyl-pyrimidin-2-ylamino)phenyl]pent-4-enoic Acid] | 46.1 | – | – | – | – | – | 53.1 | 75.0
6 | CN(c1ccc(/C=C/C[C@H](NC(=O)c2c(Cl)cccc2Cl)C(=O)O)cc1)c1ncccn1 [Example 80, (S,E)-2-(2,6-Dichlorobenzamido)-5-[4-(methyl-pyrimidin-2-ylamino)phenyl]pent-4-enoic Acid] | 45.9 | – | – | – | – | – | 61.6 | 75.0

Source: patent US7893046B2, “Therapeutic or prophylactic agent for leukemia” (Toray Industries, Inc., priority 2006, dated 2011)
